According to patent EP2050747A1, “Dimers of harmol or of its derivatives and uses thereof” (BioAlliance Pharma, priority 2007, dated 2009):

How the values were obtained:
monoamine oxydase = conditions: cited from earlier work
NIH 3T3 EF cells = assay: Rescue of F-actin network, FITC-phalloidin fluorescence microscopy; assay type: cell-based; conditions: compared with the concentrations used in harmol dimers test
Procedure: Malignant NIH 3T3 EF cells were seeded onto glass cover slips at a density of 2000 cells per cm^2. The next day, tested molecules were applied to NIH 3T3 EF cells at various non cytotoxic concentrations. Three days later, cells were fixed for 10 min in PBS containing 3.7 % formaldehyde at 4°C before examination with a fluorescence microscope. The formaldehyde solution was neutralized with 50 mM NH4Cl. Permeabilisation was carried out for 4 min with 0.4% Triton X-100 in PBS. Cells were incubated for 1 h at room temperature with blocking buffer (3% bovine serum albumin in PBS) and then for 1 h with FITC-phalloidin (Sigma) which stabilizes structures by inhibiting phosphate release from ADP-Pi-actin filaments and allows visualization of actin filaments by fluorescence microscopy. The cover slips were mounted on microscope slides using a solution of glycerol 50%, DABCO 2.5% in PBS as embedding medium.

F-actin = assay: Actin dynamics, fluorescence anisotropy assay in tumor cell cytosolic fraction; assay type: biochemical
Procedure: Actin dynamics have been quantified in tumor cell cytosolic fraction using the fluorescence anisotropy assay which gains access to rate constant of F-actin elongation (kobs) and steady state concentration of F-actin (Δ mA max).
All reactions were carried out at 22°C and fluorescence anisotropy signal was recovered at 520 nm with excitation at 490 nm in a Beacon 2000 (Panvera). Alexa 488 actin (Molecular Probes) was centrifuged at 35 000 rpm for 2 h at 4°C to sediment residual actin polymers in a Beckman L5-50B ultracentrifuge. […] 80% of the supernatant was withdrawn; the concentration was defined through fluorescence measurements (excitation at 490 nm and signal recovering at 520 nm). The ultracentrifuged actin concentration was calculated using the non ultracentrifuged Alexa 488 actin as a standard. The supernatant was aliquoted, frozen in liquid nitrogen and stored at -80°C.
Before experiment, an aliquot of ultracentrifuged Alexa 488 actin was diluted to a concentration of 1 mg/ml in G buffer (5 mM Tris pH 8.1, 2 mM CaCl2, 0.2 mM DTT, 0.2 mM ATP). 3 µl of diluted Alexa 488 actin was mixed in 168 µl of G buffer and actin monomers anisotropy was measured before the addition of 4 µl of polymerisation buffer (2.5 M KCI, 50 mM MgCl2, 25 mM ATP), 5 µl of G buffer in the presence or in the absence of the chemical molecule and 20 µl cellular extract of normal NIH 3T3 cells or malignant NIH 3T3 EF cells at 2 mg/ml. The final concentration of Alexa 488 actin was 4 nM. The ratio of unlabelled to labelled actin was about 140/4 nM. Measurements were made each 10 sec for 200 sec. Actin monomers anisotropy value was subtracted, yielding the anisotropy enhancement (Δ mA). The data were fitted with the equation Y= Ymax . [1- exp(- K.X)]. The curves start at zero and ascend to Ymax that corresponds to the steady state anisotropy value (Δ mA eq), with a rate constant K. Y is anisotropy values of which monomers anisotropy is substracted and X is the time (Assessment of cellular actin dynamics by measurement of fluorescence anisotropy. Anal Biochem. 2007 Aug 1;367(1):95-103. Epub 2007 Apr 5. Spitz et al.).

NIH 3T3 EF = assay: Cloning assay, colony formation in semi solid medium (methylcellulose); assay type: cell-based; conditions: in words
Procedure: (§1) Cells were embedded in complete culture medium supplemented with 0,8% methylcellulose (Methocel MC4000, Sigma), seeded in triplicate into 35-mm dishes (Greiner Bio-one Ref 627102, Dominique Dutscher) and incubated at 37 °C in a humidified 5% CO2 atmosphere.
(§2) The number of cells seeded was 1000 cells per dish. After one week (B16F10 cell line) to 3 weeks (NIH 3T3 EF cell line), macroscopic clones were counted.

B16F10 = assay: as above; assay type: cell-based, Murine
Procedure: as §1, §2

human tumor cell lines = conditions: cited from earlier work
B16F10 tumor = assay: In vivo tumorigenicity assay, subcutaneous B16F10 tumor growth; design: species or system C57BU6 mice
Procedure: Female 6-8 week-old C57BU6 mice were provided by Harlan (Gannat, France).
Animals were housed in air-conditioned atmosphere, given food and water in standard conditions. One million B16F10 cells in 0.1 ml PBS were injected subcutaneously into the right flank of mice. Seven days after cells inoculation, it was possible to measure tumor volume (day 0). Thereafter, before drug administration, female C57BU6 mice were randomized to form 2 groups. […]
B16F10 tumor development was monitored for 2 weeks. The tumor size was estimated every fourth day by measuring the diameters of the tumors in two perpendicular dimensions using callipers. The volume of tumor (V) was calculated using the formula, V = 2W(U2)2 , where L and W were respectively the length and the width of tumor.
In vivo tumorigenicity assay was studied with harmine. […] In parallel, control mice were treated by one daily oral route administration of the vehicle.

[1] = test system: malignant NIH 3T3 EF cells; assay: Wound healing assay (cell motility); assay type: cell-based; conditions: NIH 3T3 EF cells, 5 µM
Procedure: Harmol dimers have been tested in a cell motility assay: the behaviour of tumoral cells treated by these dimers was compared with non-treated tumoral cells in a wound healing assay. Wound healing assay was performed to evaluate the effect of tested molecules on motility of malignant NIH 3T3 EF cells and melanoma cell line B16F10. About 100 000-200 000 cells were seeded in a 6-well culture plate and the tested molecule was added 24 hours later. Cells were grown for 3 days to confluence about 90-95% and small scratch-wounds (1 mm width) were made with a pipette tip. Cell debris were removed, then the cultures were incubated in complete medium for 10 h in the presence of the same concentration of the tested molecule. Then, the cells were fixed for 10 min in PBS containing 3.7% formaldehyde at 4°C.

[2] = test system: cyclin-dependent kinases (CDKs); conditions: cited from earlier work

Structure (SMILES): COc1ccc2c(c1)[nH]c1c(C)nccc12 [harmine, reference compound]
- monoamine oxydase inhibition (monoamine oxydase): monoamine oxydase inhibitor
- modification in actin cytoskeleton network (NIH 3T3 EF cells): higher concentrations
- F actin elongation rate constant compared with NIH 3T3 cytosolic fraction (F-actin; NIH 3T3 EF cytosolic fraction, BA016FZ527 at 10 µM, harmine concentration not given): lower
- F actin steady state value (Δ mA max), effect in words (F-actin; added to assay medium, NIH 3T3 EF cytosolic fraction or lysate, versus untreated, harmol at 10 µM): increase
- F actin elongation rate constant (Kobs), effect in words (F-actin; added to assay medium, NIH 3T3 EF cytosolic fraction, versus untreated): increase
- concentration at which inhibition of NIH 3T3 EF colony formation was observed (NIH 3T3 EF): micromolar concentration
- concentration at which inhibition of B16F10 colony formation was observed (B16F10): about 1 µM
- cytotoxicity against human tumor cell lines (human tumor cell lines): strong cytotoxicity
- tumoral growth inhibition (B16F10 tumor; daily per os 100 mg/kg (2 x 50 mg/kg) for 15 days): Any tumoral growth inhibition
- tumoral growth inhibition (B16F10 tumor; daily per os 200 mg/Kg (2 x 100 mg/kg) for 15 days): Any tumoral growth inhibition
- inhibition of migration compared with the harmol dimers [1]: lower inhibition of migration
- inhibition of cyclin-dependent kinases (CDKs) [2]: selective inhibitor
